Measured values reported in patent US8198285B2, “Pyrazine derivatives” (Astrazeneca AB, priority 2010, dated 2012).
Where a name gives a salt, the structure may show the parent alone.

Tests used:
rat bone marrow = test system: rat bone marrow
Method: 3-amino-6-(4-{3-[(3-methoxypropyl)amino]propyl}phenyl)-N-pyridin-3-ylpyrazine-2-carboxamide mono-besylate was also tested in an in vivo rat genotoxicity micronucleus study. The objective of this study was to investigate whether two oral doses of 3-amino-6-(4-{3-[(3-methoxypropyl)amino]propyl}phenyl)-N-pyridin-3-ylpyrazine-2-carboxamide mono-besylate increased the frequency of micronucleated immature erythrocytes (MIE) in rat bone marrow.
3-amino-6-(4-{3-[(3-methoxypropyl)amino]propyl}phenyl)-N-pyridin-3-ylpyrazine-2-carboxamide mono-besylate was administered to groups of 7 male Wistar Han rats, approximately 10 weeks old at dosing. Groups were given two doses of 0, 25, 125 and 250 mg/kg free-base equivalent (0, 59.5, 297 and 595 umol/kg) 24 hours apart and sampled for bone marrow analysis 24 hours after the second dose. Control rats were dosed with vehicle, 0.5% w/v hydroxypropyl methylcellulose and 0.1% w/v polysorbate 80 in phosphate buffered saline.
Animals were sacrificed 24 hours after the second dose and bone marrow smears prepared, fixed and stained with acridine orange. For each animal, 2000 immature erythrocytes (IE) were scored for the incidence of micronucleated cells (MIE) and the ratio of IE to mature erythrocytes (E) was determined in 1000 cells. In order to act as a quality control procedure, 6 slides from the bone-marrow of rats treated with cyclophosphamide at 20 mg/kg (72 umol/kg) in a previous study were included with the slides from the treated animals prior to staining and coding.

human GSK3β enzyme = biological target: T1, human GSK3β enzyme (Homo sapiens, UniProt P49841); assay: In vitro GSK3β kinase assay (FRET, Z'-LYTE), Test (a); format: biochemical; conditions: read-out: IC50 versus human GSK3β enzyme
T1 construct: His6 (N); purchased Millipore 14-306; host or cells: baculovirus / Sf21 insect cells
From the text: This biochemical assay used a Fluorescence Resonance Energy Transfer (FRET)-based, coupled-enzyme format to determine the ability of test compounds to inhibit substrate phosphorylation by recombinant GSK3β serine/threonine kinase (Kleman-Leyer, K. et al. Drug Disc. Devel. 2003, 6:81-2). The substrate used in this assay was Z′-LYTE™ ser/Thr 9 peptide and the FRET assay kit was obtained from Invitrogen (Paisley, UK, catalogue number PV3324). N-terminal His6-tagged recombinant human GSK313, with an H350 L mutation, was expressed in baculovirus in Sf21 insect cells, purified and obtained from Millipore (Billerica, Mass., USA, catalogue number 14-306 Human).
Test compounds were prepared as 10 mM stock solutions in dimethylsulphoxide (DMSO) and diluted in DMSO as required. Aliquots (2.5 μl) of compound dilutions were added to the wells of an Optiplate-F PerkinElmer 384-well plate (Massachusetts, USA, catalogue number 6007270). Control wells that produced a maximum signal corresponding to maximum enzyme activity were created by using 100% phosphorylated peptide obtained from Invitrogen (Paisley, UK, catalogue number PV3326). A 5 μl aliquot of 100% phosphorylated peptide (100 μM in 1.33× kinase buffer) was added to all maximum control wells. 2.5 μl of 4% DMSO solution (v/v) in 1.33× kinase buffer was added to maximum control wells. Control wells that produced a minimum signal corresponding to 100% inhibited enzyme were created by adding 2.5 μl of 40 μM Staurosporine in 1.33× kinase buffer containing 4% DMSO (v/v). A 5 μl mixture of GSK3β (100 ng/μl) enzyme and non-phosphorylated substrate (Z-LYTE™ ser/Thr 9 peptide, 100 μM) in a 1.33× kinase buffer solution was added to each well except maximum control wells and the assay plate centrifuged at 270 g for 1 minute. The kinase buffer used 1.33× was obtained from Invitrogen (Paisley, UK, catalogue number PV3189) and contained 67 mM HEPES (pH 7.5), 13 mM MgCl2, 1.3 mM EGTA, 0.01% BRIJ-35. Then 2.5 μl adenosine triphosphate (28 μM) in kinase buffer was added per well, centrifuged at 270 g for 1 minute and then the assay plate was shaken for 1 hour at room temperature. A proprietary development solution was prepared by adding 58 μl of development reagent A (Invitrogen, Paisley, UK, catalogue number PV3297) to 2142 μl of development reagent B (Invitrogen, Paisley, UK, catalogue number P3127). […]
The resultant signals arising from laser light excitation at 400 nm were read using a Perkin Elmer Envision spectrophotometer (Perkin Elmer, Massachusetts, USA). […] A ratiometric method, which calculates the ratio (the Emission Ratio) of donor emission to acceptor emission after excitation of the donor fluorophore at 400 nm, quantitates reaction progress, as shown in the equation below. […]

[1] = test system: β-catenin accumulation in the nucleus of murine C3H/10T1/2 cells; assay: Cellular beta-catenin stabilisation assay, Test (b); format: cell-based; conditions: Mus musculus, 24 hours, read-out: EC50 versus cellular β-catenin accumulation in the nucleus of murine C3H/10T1/2 cells
Method: This assay uses an imaging based approach to measure the ability of test compounds to promote Beta-catenin stabilisation in the nucleus of C3H10T1/2 cells. Beta-catenin stabilisation is an indicator of GSK3β inhibition.
A C3H10T1/2 mouse clone 8 fibroblast cell line (American Type Culture Collection (ATCC, USA; catalogue number CRL 226) was routinely maintained at 37° C. with 5% CO2 in Basal Medium Eagle (BME, Invitrogen; Paisley, UK; catalogue number 41010) containing 10% (v/v) foetal bovine serum (FBS, Invitrogen, Paisley; UK; catalogue number 10270) and 2 mM L-glutamine (Invitrogen, Paisley, UK; catalogue number 25030024). For the assay, the cells were detached from the culture flask with ‘Accutase’ (Innovative Cell Technologies Inc., San Diego, USA; catalogue number AT104) using standard tissue culture methods and re-suspended in assay media comprising of BME containing 5% (v/v) FBS and 2 mM L-glutamine to give 55,555 cells per ml. Then, 90 μl of this solution was seeded into each well of a clear-bottom 96 well tissue culture plate (Perkin Elmer Viewplate; catalogue number 6005182) using a Multidrop Combi Dispenser (Thermo Fisher Scientific, Loughborough, UK) to give 5,000 cells per well. Plates were incubated overnight at 37° C. with 5% CO2 to allow the cells to adhere to the wells. Test compounds were prepared as 10 mM stock solutions in dimethylsulphoxide (DMSO) (Sigma-Aldrich; Poole, UK, catalogue number 49442-9) and serially diluted in DMSO. A Multidrop Combi was used to dispense 245 μl of pre-warmed assay media into a 96 well plate (Thermo Fisher Scientific, Loughborough, UK; catalogue number 50823925) before 5 μl of serially diluted compound was added to this intermediate plate. After mixing, 10 μl of each compound concentration was added to the cell plates. The total dilution factor from DMSO stock was 500 times. Control cells received either DMSO (0.2% v/v final concentration) or 10 μM positive control compound. The cells were incubated for 24 hours at 37° C. with 5% CO2.
After compound treatment the cells were fixed by the addition of 100 μl of 8% w/v paraformaldehyde (Sigma-Aldrich, Poole, UK; catalogue number P6148), directly into the assay plate wells. The cells were incubated at ambient temperature with fixative for 30 minutes before washing 3 times with 100 μl phosphate-buffered saline (PBS, Sigma-Aldrich; catalogue number D8537). […] The cells were then washed 3 times in 100 μl of PBS before the plates were sealed ready for image capture. Fluorescent images were captured and quantified using the Incell Analyser 3000 (GE Healthcare, USA). […]

T1 sequence (P49841 whole entry): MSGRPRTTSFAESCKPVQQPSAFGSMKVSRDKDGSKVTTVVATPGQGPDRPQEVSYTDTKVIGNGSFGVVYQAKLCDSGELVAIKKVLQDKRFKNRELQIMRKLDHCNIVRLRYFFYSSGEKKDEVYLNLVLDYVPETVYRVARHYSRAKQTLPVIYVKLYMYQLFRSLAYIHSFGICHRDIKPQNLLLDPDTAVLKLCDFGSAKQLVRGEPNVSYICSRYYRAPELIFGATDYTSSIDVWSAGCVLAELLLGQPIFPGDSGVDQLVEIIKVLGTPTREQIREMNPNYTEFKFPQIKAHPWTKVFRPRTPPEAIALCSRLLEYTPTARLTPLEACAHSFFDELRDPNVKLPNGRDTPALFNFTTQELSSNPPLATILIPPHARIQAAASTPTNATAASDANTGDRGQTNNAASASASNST

IC50 (human GSK3β enzyme) | EC50 [1] | SMILES | Maximum tolerated dose (highest dose) (rat bone marrow; two oral doses 24 hours apart, male Wistar Han rats) | Incidence of micronucleated immature erythrocytes (MIE) above the vehicle control (rat bone marrow; two oral doses up to 250 mg/kg free-base equivalent 24 hours apart, bone marrow 24 hours after second dose) | Incidence of MIE compared with the vehicle control values (rat bone marrow; quality control slides, rats given 20 mg/kg in a previous study)
 |  | COCCCNCCCc1ccc(-c2cnc(N)c(C(=O)Nc3cccnc3)n2)cc1.O=S(=O)(O)c1ccccc1 [3-amino-6-(4-{3-[(3-methoxypropyl)amino]propyl}phenyl)-N-pyridin-3-ylpyrazine-2-carboxamide mono-besylate] | 250 mg/kg free-base equivalent | no biologically or statistically significant increases | 
~21 nM | ~902 nM | COCCNCCCc1ccc(-c2cnc(N)c(C(=O)Nc3cccnc3)n2)cc1 [Example 5, 3-Amino-6-(4-{3-[(2-methoxyethyl)amino]propyl}phenyl)-N-pyridin-3-ylpyrazine-2-carboxamide tri-hydrochloride] |  |  | 
~48 nM | ~902 nM | COCCCNCCc1ccc(-c2cnc(N)c(C(=O)Nc3cccnc3)n2)cc1 [Example 6, 3-Amino-6-(4-{2-[(3-methoxypropyl)amino]ethyl}phenyl)-N-pyridin-3-ylpyrazine-2-carboxamide] |  |  | 
~80 nM | ~3890 nM | COCCNCCc1ccc(-c2cnc(N)c(C(=O)Nc3cccnc3)n2)cc1 [Example 7, 3-Amino-6-(4-{2-[(2-methoxyethyl)amino]ethyl}phenyl)-N-pyridin-3-ylpyrazine-2-carboxamide tri-hydrochloride] |  |  | 
 |  | O=P1(N(CCCl)CCCl)NCCCO1 (stereo not drawn) [cyclophosphamide, reference compound] |  |  | significantly increased
